Laboratory results published in PubChem BioAssay AID330 (DTP/NCI, 2004).
Where “and” joins values, the source holds several entries; their conditions need not be identical. Identical values can stand only once. Toxic doses and inconclusive results are not listed.

System: P388 leukemia ip, CD2F1 mice, survival T/C
Experiment: NCI In Vivo Anticancer Drug Screen. Data for tumor model P388 Leukemia (intraperitoneal) in CD2F1 (CDF1) mice
Details: endpoint: median survival time, higher = longer survival
How it was run: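 Mice carrying the transplanted tumor received test compound or vehicle. Survival was recorded in each group, and the value is the treated-group measurement divided by that of the vehicle-treated control group.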

[1] = dose: 100.0 mg/kg/injection, schedule: Q04DX003 (ip), vehicle: saline
[2] = dose: 60.0 mg/kg/injection, schedule: Q01DX005 (ip), vehicle: saline with Tween-80
[3] = dose: 120.0 mg/kg/injection, schedule: Q01DX005 (ip), vehicle: saline with Tween-80
[4] = dose: 240.0 mg/kg/injection, schedule: Q01DX005 (ip), vehicle: saline with Tween-80
[5] = dose: 50.0 mg/kg/injection, schedule: Q01DX009 (ip), vehicle: saline with Tween-80
[6] = dose: 100.0 mg/kg/injection, schedule: Q01DX009 (ip), vehicle: saline with Tween-80
[7] = dose: 200.0 mg/kg/injection, schedule: Q01DX009 (ip), vehicle: saline with Tween-80
[8] = dose: 50.0 mg/kg/injection, schedule: Q01DX005 (ip), vehicle: saline with Tween-80
[9] = dose: 100.0 mg/kg/injection, schedule: Q01DX005 (ip), vehicle: saline with Tween-80
[10] = dose: 200.0 mg/kg/injection, schedule: Q01DX005 (ip), vehicle: saline with Tween-80
[11] = dose: 50.0 mg/kg/injection, schedule: Q01DX005 (ip), vehicle: Klucel (hydroxypropylcellulose) (HPC)
[12] = dose: 100.0 mg/kg/injection, schedule: Q01DX005 (ip), vehicle: Klucel (hydroxypropylcellulose) (HPC)
[13] = dose: 200.0 mg/kg/injection, schedule: Q01DX005 (ip), vehicle: Klucel (hydroxypropylcellulose) (HPC)

Structure (SMILES): CCOC(=O)C1C(c2ccc(C)cc2)C(C#N)C(=O)NC1(O)c1ccccc1 (stereo not given)
- T/C (dose: 100.0 mg/kg/injection, schedule: Q04DX002 (ip), vehicle: Klucel (hydroxypropylcellulose) (HPC)): 99 % of control
- T/C (dose: 200.0 mg/kg/injection, schedule: Q04DX002 (ip), vehicle: Klucel (hydroxypropylcellulose) (HPC)): 95 % of control
- T/C (dose: 400.0 mg/kg/injection, schedule: Q04DX002 (ip), vehicle: Klucel (hydroxypropylcellulose) (HPC)): 98 % of control

Structure (SMILES): CCOC(=O)NC(NC(=O)OCC)c1cccc([N+](=O)[O-])c1
- T/C [1]: 91 % of control
- T/C (dose: 200.0 mg/kg/injection, schedule: Q04DX003 (ip), vehicle: saline): 95 % of control
- T/C (dose: 400.0 mg/kg/injection, schedule: Q04DX003 (ip), vehicle: saline): 91 % of control

Structure (SMILES): CC(C)(C)C(=O)CC(O)(C(F)(F)Cl)C(F)(F)Cl
- T/C (dose: 50.0 mg/kg/injection, schedule: Q04DX003 (ip), vehicle: saline with Tween-80): 90 % of control
- T/C (dose: 100.0 mg/kg/injection, schedule: Q04DX003 (ip), vehicle: saline with Tween-80): 95 % of control
- T/C (dose: 200.0 mg/kg/injection, schedule: Q04DX003 (ip), vehicle: saline with Tween-80): 105 % of control

Structure (SMILES): CCc1cc(C)cc(NC(=O)OC2CCCCC2C)c1 (stereo not given)
- T/C [2]: 102 % of control
- T/C [3]: 112 % of control
- T/C [4]: 111 % of control

Structure (SMILES): O=[N+]([O-])c1ccc(Br)cc1
- T/C (dose: 50.0 mg/kg/injection, schedule: Q01DX009 (ip), vehicle: saline): 106 % of control
- T/C (dose: 100.0 mg/kg/injection, schedule: Q01DX009 (ip), vehicle: saline): 108 % of control
- T/C (dose: 200.0 mg/kg/injection, schedule: Q01DX009 (ip), vehicle: saline): 101 % of control

Structure (SMILES): CCN(CC)CCNc1cc(OC)c(C)c2cccnc12
- T/C (dose: 50.0 mg/kg/injection, schedule: Q01DX005 (ip), vehicle: saline): 104 % of control
- T/C (dose: 100.0 mg/kg/injection, schedule: Q01DX005 (ip), vehicle: saline): 109 % of control

Structure (SMILES): CC(=O)CC(=O)CCCCC(=O)O
- T/C [5]: 112 % of control
- T/C [6]: 112 % of control
- T/C [7]: 104 % of control

Structure (SMILES): c1ccc(P2(c3ccccc3)=NSN=S=N2)cc1
- T/C [8]: 107 % of control
- T/C [9]: 116 % of control
- T/C [10]: 108 % of control

Structure (SMILES): Cc1c(N)c(=O)oc2cc3occc(=O)c3cc12
- T/C (dose: 100.0 mg/kg/injection, schedule: Q01DX001 (ip), vehicle: saline with Tween-80): 91 % of control
- T/C (dose: 200.0 mg/kg/injection, schedule: Q01DX001 (ip), vehicle: saline with Tween-80): 89 % of control
- T/C (dose: 400.0 mg/kg/injection, schedule: Q01DX001 (ip), vehicle: saline with Tween-80): 92 % of control

Structure (SMILES): O=C1c2ccncc2C(=O)N1CCO
- T/C (dose: 60.0 mg/kg/injection, schedule: Q01DX005 (ip), vehicle: saline): 103 % of control
- T/C (dose: 120.0 mg/kg/injection, schedule: Q01DX005 (ip), vehicle: saline): 104 % of control
- T/C (dose: 240.0 mg/kg/injection, schedule: Q01DX005 (ip), vehicle: saline): 101 % of control

Structure (SMILES): O=S(=O)(Oc1cccc2ccccc12)C(F)(F)C(F)(F)C(F)(F)C(F)(F)F
- T/C [5]: 108 % of control
- T/C [6]: 108 % of control
- T/C [7]: 105 % of control

Structure (SMILES): Cc1onc(-c2c(F)cccc2Cl)c1-c1ncc(-c2ccc(Br)cc2)o1
- T/C [2]: 100 % of control
- T/C [3]: 104 % of control
- T/C [4]: 101 % of control

Structure (SMILES): O=C1c2ccccc2C(=O)c2c1ccc1nc(Cl)c(=O)[nH]c21
- T/C [2]: 94 % of control
- T/C [3]: 97 % of control
- T/C [4]: 94 % of control

Structure (SMILES): Oc1cc(O)cc(/C=C/c2ccc(O)cc2O)c1
- T/C (dose: 2.0 mg/kg/injection, schedule: Q01DX009 (ip), vehicle: Klucel (hydroxypropylcellulose) (HPC)): 102 % of control
- T/C (dose: 4.0 mg/kg/injection, schedule: Q01DX009 (ip), vehicle: Klucel (hydroxypropylcellulose) (HPC)): 105 % of control
- T/C (dose: 8.0 mg/kg/injection, schedule: Q01DX009 (ip), vehicle: Klucel (hydroxypropylcellulose) (HPC)): 101 % of control
- T/C (dose: 16.0 mg/kg/injection, schedule: Q01DX009 (ip), vehicle: Klucel (hydroxypropylcellulose) (HPC)): 94 % of control
- T/C (dose: 32.0 mg/kg/injection, schedule: Q01DX009 (ip), vehicle: Klucel (hydroxypropylcellulose) (HPC)): 101 % of control

Structure (SMILES): CCOC(=O)n1c2ccccc2c(=O)n1CCO
- T/C [2]: 105 % of control
- T/C [3]: 97 % of control
- T/C [4]: 91 % of control

Structure (SMILES): CCCC(=O)N1CCCCC1CC (stereo not given)
- T/C (dose: 100.0 mg/kg/injection, schedule: Q01DX001 (ip), vehicle: saline): 100 % of control
- T/C (dose: 200.0 mg/kg/injection, schedule: Q01DX001 (ip), vehicle: saline): 102 % of control

Structure (SMILES): O=c1[nH]c2cc([N+](=O)[O-])ccc2nc1/C=C(\O)c1cccc2ccccc12
- T/C (dose: 30.0 mg/kg/injection, schedule: Q01DX005 (ip), vehicle: Klucel + Tween-80): 91 % of control
- T/C (dose: 60.0 mg/kg/injection, schedule: Q01DX005 (ip), vehicle: Klucel + Tween-80): 87 % of control and 94 % of control
- T/C (dose: 120.0 mg/kg/injection, schedule: Q01DX005 (ip), vehicle: Klucel + Tween-80): 86 % of control
- T/C (dose: 240.0 mg/kg/injection, schedule: Q01DX005 (ip), vehicle: Klucel + Tween-80): 88 % of control

Structure (SMILES): COC1OC(COC(=O)c2ccccc2)C(=O)C(OC(=O)c2ccccc2)C1N(O)C1C(COC(=O)c2ccccc2)OC2OC(C)(C)OC21 (stereo not given)
- T/C [11]: 101 % of control
- T/C [12]: 105 % of control
- T/C [13]: 100 % of control

Structure (SMILES): O=S(=O)(/C=C/c1ccccc1)OCCCl
- T/C [5]: 103 % of control
- T/C [6]: 107 % of control
- T/C [7]: 107 % of control

Structure (SMILES): CC(C)([NH-])CO.CC(C)([NH-])CO.[Cl][Cd][Cl]
- T/C (dose: 3.13 mg/kg/injection, schedule: Q01DX009 (ip), vehicle: saline): 91 % of control
- T/C (dose: 6.25 mg/kg/injection, schedule: Q01DX009 (ip), vehicle: saline): 91 % of control

Structure (SMILES): CC(=O)OCc1c(-c2ccccc2)nc2sccn12
- T/C (dose: 100.0 mg/kg/injection, schedule: Q01DX001 (ip), vehicle: Klucel (hydroxypropylcellulose) (HPC)): 98 % of control
- T/C (dose: 200.0 mg/kg/injection, schedule: Q01DX001 (ip), vehicle: Klucel (hydroxypropylcellulose) (HPC)): 100 % of control

Structure (SMILES): COc1ccc(CCN2CCC(Nc3nc4ccccc4n3Cc3ccc(F)cc3)CC2)cc1
- T/C [8]: 92 % of control
- T/C [9]: 95 % of control

Structure (SMILES): CCC(NN)C(=O)OCc1ccccc1 (stereo not given)
- T/C [11]: 97 % of control
- T/C [12]: 95 % of control
- T/C [13]: 103 % of control

Structure (SMILES): Nc1ccc2[nH]c3cnccc3c2c1
- T/C (dose: 12.5 mg/kg/injection, schedule: Q01DX009 (ip), vehicle: other): 103 % of control
- T/C (dose: 25.0 mg/kg/injection, schedule: Q01DX009 (ip), vehicle: other): 108 % of control
- T/C (dose: 50.0 mg/kg/injection, schedule: Q01DX009 (ip), vehicle: other): 103 % of control
- T/C (dose: 100.0 mg/kg/injection, schedule: Q01DX009 (ip), vehicle: other): 103 % of control

Structure (SMILES): Oc1ccc(O)c(/C=N/N=C/c2cc(O)ccc2O)c1
- T/C [11]: 97 % of control
- T/C [12]: 97 % of control
- T/C [13]: 91 % of control

Structure (SMILES): O=C1C2=C(Nc3ccccc3N2)OC1c1ccccc1O (stereo not given)
- T/C (dose: 60.0 mg/kg/injection, schedule: Q01DX005 (ip), vehicle: Klucel (hydroxypropylcellulose) (HPC)): 98 % of control
- T/C (dose: 120.0 mg/kg/injection, schedule: Q01DX005 (ip), vehicle: Klucel (hydroxypropylcellulose) (HPC)): 91 % of control
- T/C (dose: 240.0 mg/kg/injection, schedule: Q01DX005 (ip), vehicle: Klucel (hydroxypropylcellulose) (HPC)): 91 % of control

Structure (SMILES): O=C(O)CSc1nc(-c2nc3ccccc3s2)cn1-c1ccc(F)cc1
- T/C (dose: 50.0 mg/kg/injection, schedule: Q01DX009 (ip), vehicle: Klucel (hydroxypropylcellulose) (HPC)): 106 % of control
- T/C (dose: 100.0 mg/kg/injection, schedule: Q01DX009 (ip), vehicle: Klucel (hydroxypropylcellulose) (HPC)): 106 % of control
- T/C (dose: 200.0 mg/kg/injection, schedule: Q01DX009 (ip), vehicle: Klucel (hydroxypropylcellulose) (HPC)): 100 % of control

Structure (SMILES): C=C1C2(C(=O)O)CCC(C2)C1(C)C (stereo not given)
- T/C [8]: 105 % of control
- T/C [9]: 101 % of control
- T/C [10]: 111 % of control

Structure (SMILES): CCc1c(NCCO)c(C(=O)NCCO)c2nc3ccccc3n2c1NCCO
- T/C [2]: 101 % of control
- T/C [3]: 99 % of control
- T/C [4]: 99 % of control

Structure (SMILES): CCN(CC)Cc1c(C)nc2cc(N(C)C)ccc2c1Cl
- T/C [2]: 103 % of control

Structure (SMILES): C=CCOc1cc2c(cc1C(CC)c1ccc(OC)cc1)OCO2 (stereo not given)
- T/C [11]: 101 % of control
- T/C [12]: 103 % of control
- T/C [13]: 104 % of control

Structure (SMILES): NC(N)=NC(N)=Nc1ccc(Cl)c(Cl)c1
- T/C (dose: 12.5 mg/kg/injection, schedule: Q01DX009 (ip), vehicle: saline with Tween-80): 103 % of control
- T/C (dose: 25.0 mg/kg/injection, schedule: Q01DX009 (ip), vehicle: saline with Tween-80): 103 % of control and 106 % of control
- T/C [5]: 112 % of control and 93 % of control
- T/C [6]: 88 % of control
- T/C [1]: 109 % of control
